# According to PMC6212438, “Vapor detection and discrimination with a panel of odorant receptors” (Nature Communications, 2018):
# Target: T1, Olfr1484 (Mus musculus, UniProt Q8VEU6)
# T1 construct: gene Or5b122; full ORF with N-terminal Rho-tag (first 20 residues of human rhodopsin), Hana3A cells, co-expressed RTP1S
# T1 sequence (Q8VEU6 1-315): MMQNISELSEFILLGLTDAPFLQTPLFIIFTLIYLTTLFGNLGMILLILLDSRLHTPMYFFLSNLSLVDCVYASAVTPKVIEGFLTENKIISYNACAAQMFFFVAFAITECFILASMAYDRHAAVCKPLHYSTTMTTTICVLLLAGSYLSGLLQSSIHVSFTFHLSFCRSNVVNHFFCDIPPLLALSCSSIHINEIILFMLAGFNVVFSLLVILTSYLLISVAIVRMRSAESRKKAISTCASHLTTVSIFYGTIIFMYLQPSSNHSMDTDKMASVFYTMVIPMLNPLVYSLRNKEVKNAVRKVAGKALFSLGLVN
# Experiment: GloSensor cAMP luminescence in Hana3A cells
# Format: cell-based
# Settings: agonist; vapor-phase stimulation, odorant diluted in mineral oil
structure (smiles),measurement,value
O=C1CCCCC1 [cyclohexanone],GloSensor cAMP luminescence in Hana3A cells,Olfr1484 to cyclohexanone (CH)
